Columns and labels:
[1] = tested on: PAO1 (pTdK-GFP) biofilm; assay: static biofilm assay, PAO1 (pTdK-GFP); type: cell-based, P. aeruginosa
Experimental: (§1) Compound 3 was tested for its effect on biofilm development in a 24-hour assay that looks at the early stages of biofilm formation. […] Cultures were grown at 37° C. with shaking for 30 minutes, and then allowed to sit at 37° C. for an additional 23.5 hours. Coverslips were then rinsed and placed on slides for visualization using an MRC1024 Laser Scanning Microscope (BioRad) with a Nikon Fluor-60X oil emersion objective lens (NA=1.4), 488 nm Argon Laser and OG515 filter.
The same assay was run with strain PAO-1 (pTdK-GFP), and no exogenous autoinducers were added. […] The above results provide additional evidence that compound 3 interferes with QS signaling and reduces the production of important virulence factors.

[2] = tested on: RhlR; assay: rhlI-gfp reporter antagonist assay, PAO-JP2 (prhlI-LVAgfp); type: cell-based, P. aeruginosa; conditions: 50 μM compound, competing against 1 μM AI1 and 10 μM AI2
Experimental: Each compound in the library was tested for antagonist activity using the same reporter strain, PAO-JP2 (plasI-LVAgfp) (de Kievit et al., Appl. Environ. Microbiol. 67:865-1873 (2001), which is hereby incorporated by reference in its entirety) to find compounds that could compete against AI1 and reduce GFP expression. The methods were the same as described in Example 2 (GFP Reporter Assay), except that 1 μM AI1 was added to each well in combination with the library compound. The fluorescence/OD600 of each compound competing against AI1 was reported relative to the fluorescence/OD600 of the positive control of AI1 alone, which was set to 1. When strain PAO-JP2 (prhlI-LVAgfp) was used, the positive control was 1 μM AI1 and 10 μM AI2.
3- oxo-C12-D10 was synthesized in solution phase, where the natural side chain was coupled with D10 and purified by chromatography. To determine if the same structural motif can be applied to inhibition of the RhlR-AI2 interaction, C4-D10 was also synthesized. Assays were performed with both the lasI-gfp reporter PAO-JP2 (plasI-LVAgfp) and an RhlR-AI2 controlled rhlI-gfp reporter, PAO-JP2 (prhlI-LVAgfp) (FIGS. 10A-C) (de Kievit et al., Appl. Environ. Microbiol. 67:865-1873 (2001), which is hereby incorporated by reference in its entirety).
Reporter strains were grown overnight in LB plus 300 μg/ml carbenicillin at 37° C. and diluted to an OD600 of 0.1. Following an incubation of 1 hour, 200 μl of cell culture was added to individual wells of a 96 well plate containing appropriate amount of test compound(s). Plates were incubated for 6 hours and then scanned for fluorescence emission with a Molecular Imager (488 nm excitation and 695 nm bandpass filter). Fluorescence was quantified with ImageQuant software.
Next the ability of 2 and 3 to inhibit the rhlI-gfp reporter strain PAO-JP2 (prhlI-LVAgfp) was tested, since this expression is also AI1-dependent.

[3] = tested on: pyocyanin; assay: pyocyanin assay, wild type strain PAO1; type: cell-based, P. aeruginosa PAO1; conditions: wild type PAO1, no AIs added
Experimental: For the pyocyanin assay, cells were grown overnight in LB then washed in fresh media and diluted to an OD600 of 0.05. This culture was grown for 3-4 hours to mid-log phase (OD600 of 0.3-0.5), then diluted to an OD600 of 0.05, and aliquoted to test tubes containing an appropriate amount of test compound(s). Following 18 hours of growth, pyocyanin was extracted from filtered culture supernatants and quantified using standard methods (Essar et al., J. Bacteriol. 172:884-900 (1990), which is hereby incorporated by reference in its entirety).

[4] = tested on: PAO-JP2 (pTdK-GFP) biofilm; assay: static biofilm assay, PAO-JP2 (pTdK-GFP); type: cell-based, P. aeruginosa; conditions: PAO-JP2 (pTdK-GFP) with exogenous AIs, 24-hour static assay
Experimental: as §1

[5] = tested on: Elastase B; assay: elastase (Elastin Congo Red) assay, wild type strain PAO1; type: cell-based, P. aeruginosa PAO1; conditions: wild type PAO1, 100 μM compound
Experimental: (§2) Pyocyanin, elastase, and biofilm were assayed as previously described (Smith et al., Chem. Biol. 10:81-89 (2003), which is hereby incorporated by reference in its entirety). Elastase activity produced by P. aeruginosa in the presence of AIs and competing 3-oxo-C12-D10 was determined by measuring breakdown of the substrate Elastin Congo Red.
(§3) For the elastase B assay, cells (PAO-JP2) were grown overnight in PTSB media (5% Peptone, 0.1% Tryptic Soy Broth) at 37° C., washed and diluted to an OD600 of 0.05, grown to mid-log phase, washed again, and re-suspended to an OD600 of 0.05. The culture was then added to test tubes containing test compound(s) and grown for 6 hours. Elastase B activity was quantified by incubation of 100 μl of filtered culture supernatant with 5 mg Elastin Congo Red substrate and 1 ml of 10 mM Tris pH 7.2, 1 mM CaCl2 for 6 hours at 37° C. with agitation. Elastase B activity is represented by the OD495 of the enzyme assay following reaction quenching with EDTA and centrifugation to remove unreacted substrate, divided by the OD600 of the cell culture. The same assay was run with strain PAO-1, however no exogenous autoinducers were added.

[6] = tested on: P. aeruginosa; assay: cell growth in the reporter assay; type: cell-based; conditions: concentrations up to 400 μM
Experimental: Based on the above hypothesis, a competition assay of 2 and 3 against AI1, using strain PAO-JP2 (plasI-LVAgfp), was performed. […] It should be noted that this inhibition experiment was performed with competition against 1 μM AI1, a concentration typically produced by wild type P. aeruginosa (Pearson et al., Proc. Natl Acad. Sci. USA 92:1490-1494 (1995), which is hereby incorporated by reference in its entirety). […] It should also be noted that cell growth was not affected by the addition of 2 or 3 at concentrations up to 400 μM. Thus, it appears that compounds 2 and 3 act as specific inhibitors of QS controlled promoters. Compound 6 was also tested for its ability to compete against AI2, but no inhibition of the rhlI-gfp reporter gene was seen.

[7] = tested on: Elastase B; assay: elastase (Elastin Congo Red) assay, strain PAO-JP2; type: cell-based, P. aeruginosa PAO-JP2; conditions: PAO-JP2, 50 μM compound, 5 μM AI1 and 10 μM AI2
Experimental: as §2, §3

CCCCCCCCCC(=O)CC(=O)NC1CCCCC1=O (racemic) [Compound 3, N-(2-oxocyclohexyl)-3-oxododecanamide]
effect on biofilm morphology ([1]; wild type PAO1): noticeable difference in biofilm morphology
effect on biofilm formation ([1]; wild type PAO1, no exogenous autoinducers): less obvious
inhibition of GFP expression (rhlI-gfp) [2]: greater than 60%
effect on pyocyanin production [3]: very similar inhibitory effect
effect on biofilm formation [4]: completely inhibited
elastase activity, % of the control level [5]: 30%
effect on cell growth [6]: not affected
elastase activity, % of the positive control level [7]: 60%
